Experiments:
[1] = system: cleavage of pro-caspase-1 into active caspase-1 (NLRP3 inflammasome activation); assay: Western blot of Alu RNA-induced caspase-1 cleavage (inflammasome activation) in BMDMs; type: cell-based; settings: mouse BMDMs, 200 μM compound for 1 hour, then Alu RNA transfection overnight, FIG. 1
Description: (§1) Cell Stimulation. Bone marrow derived macrophages (BMDMs) were treated with 200 μM Zidovudine (AZT), GAZT, AMT, or LSO for 1 hour. Cells were transfected with Alu RNA overnight using Lipofectamine 3000 (Invitrogen) according to manufacturer's instructions.
Western blotting. Serum free media (1 mL) from stimulated BMDMs was transferred into fresh tubes and centrifuged for 10 min at 12,000 rpm at 4° C. 15 μl of 10% sodium deoxycholate was added to the supernatants, vortexed and kept on ice. 72 μl Trichloroacetic acid (Sigma-Aldrich, St. Louis,. Mo., United States of America) was subsequently added and the tubes were kept on ice overnight. After centrifugation for 30 min at 12,000 rpm at 4° C., the pellet was washed twice with 500 μl ice-cold acetone. The pellet was dried and boiled with LDS Sample Buffer and β-mercaptoethanol (Sigma-Aldrich). The precipitated protein was analyzed by immunoblotting.
The ability of NRTI and NRTI metabolites to inhibit inflammasome activation was tested by western blot.

IL-1β release = assay: ELISA of Alu RNA-induced IL-1β release from BMDMs; type: cell-based; settings: mouse BMDMs, 200 μM compound for 1 hour, then Alu RNA transfection overnight, FIG. 2
Description: as §1
Enzyme-linked immunosorbent assay (ELISA). 1.2 million cells/mL were seeded per well in 6-well cell culture dishes overnight and stimulated as mentioned above. Secreted mouse IL-1β in the medium were detected by ELISA (R&D Systems, Inc., Minneapolis, Minn., United States of America) according to the manufacturer's instructions.
The ability of NRTI and NRTI metabolites to inhibit IL-1β release was tested by ELISA.

[2] = system: laser-induced choroidal neovascularization (CNV); assay: Laser-induced choroidal neovascularization, mouse model of neovascular (wet) macular degeneration; type: in vivo; settings: wild-type C57BL/6J mice, CNV lesion volume 7 days after laser; FIGS. 3A, 3B, 4
Description: (§2) Animals. Both male and female wild-type (WT) C57BL/6J mice (The Jackson Laboratory, Bar Harbor, Me., United States of America) between 6-10 weeks of age were used in this study. For all procedures, anesthesia was achieved by intraperitoneal injection of 100 mg/kg ketamine hydrochloride (Fort Dodge Animal Health, Overland Park, Kans., United States of America) and 10 mg/kg xylazine (Phoenix Scientific, Inc., St. Joseph, Mo., United States of America), and pupils were dilated with topical 1% tropicamide and 2.5% phenylephrine hydrochloride (Alcon Laboratories, Inc., Ft. Worth, Tex., United States of America). All animal experiments were approved by the Institutional Animal Care and Use Committees of the University of Virginia (Charlottesville, Va., United States of America) and was performed in accordance with the Statement for the Use of Animals in Ophthalmic and Visual Research of the Association for Research in Vision and Ophthalmology (Washington, D.C., United States of America).
(§3) Subretinal and intravitreous injections. Subretinal injections (SRI) (1 μl) and intravitreous injections (0.5 μl) in mice were performed using a 35-gauge needle (Ito Co.). In vitro transcribed Alu RNA (300 ng/μl) was injected into the subretinal space via SRI. 1 mM of 3′-Azido-3′-deoxythymidine β-D-glucuronide (GAZT; Cayman Chemical, Ann Arbor, Mich., United States of America), Lamivudine (R)-sulfoxide (LSO; Toronto Research Chemicals, Toronto, Canada) 2 mM of 3′-Amino-3′-deoxythymidine (AMT; Toronto Research Chemicals), or PBS was injected into the vitreous humor. Kamuvudines including but not limited to K-8 (2-Et-AZT) and K-9 (3-Me-3TC, a.k.a. 3-Me-lamivudine) were previously described (see U.S. Pat. No. 10,294,220, which is incorporated herein by reference in its entirety).
Choroidal neovascularization. Experimental choroidal neovascularization (CNV) was induced via laser photocoagulation (OcuLight GL, IRIDEX Corp., Mountain View, Calif., United States of America; 180 mW, 100 ms, 75 μm) in both eyes. The volume of the CNV lesions was measured after 7 days using a scanning laser confocal microscope (A1R Nikon confocal microscope system, Nikon USA, Melville, N.Y., United States of America) after 0.7% FITC-isolectin B4 staining (Vector Laboratories, Burlingame, Calif., United States of America, USA). The volume of each lesion was calculated using FIJI software (Schindelin et al., 2012).
The ability of NRTI, NRTI metabolites, and NRTI analogs to inhibit neovascular (wet) macular degeneration in a mouse model was tested. The results are shown in FIGS. 3A and 3B and in FIG. 4.

[3] = system: retinal pigmented epithelium (RPE); assay: Alu RNA-induced RPE degeneration, mouse model of atrophic (dry) macular degeneration; type: in vivo; settings: mice, subretinal Alu RNA, intravitreous 1 mM GAZT or LSO, 2 mM AMT; ZO-1 RPE flat mounts 7 days after injection; FIG. 5
Description: as §2, §3

subretinal fibrosis = assay: Subretinal fibrosis after laser injury / subretinal Alu RNA in mice; type: in vivo, mouse; settings: wild-type mice, intravitreous injection, laser injury with subretinal Alu RNA, collagen type 1 staining after 7 days, FIGS. 6B
Description: as §2
Subretinal and intravitreous injections. Subretinal injections (SRI) (1 μl) and intravitreous injections (0.5 μl) in mice were performed using a 35-gauge needle (Ito Co.). […]
Subretinal fibrosis. […] After mounting in slides, the RPE flat mounts were imaged using a scanning laser confocal microscope (A1R Nikon confocal microscope system, Nikon USA) and the volume of each lesion was calculated by FIJI software. […]

[4] = Cataract formation after administration of fluoxetine preparations to the eye; type: in vivo

Row | Structure (SMILES) | Alu RNA-induced cleavage of pro-caspase-1 (50 kDa band) into active caspase-1 (20 kDa band) [1] | Alu RNA-induced IL-1β release (IL-1β release) | laser-induced choroidal neovascularization (CNV) volume [2] | Alu RNA-induced RPE degeneration [3] | subretinal fibrosis volume (subretinal fibrosis) | cataract formation, share of subjects [4]
1 | Cc1cn([C@H]2C[C@H](N=[N+]=[N-])[C@@H](CO[C@@H]3O[C@H](C(=O)O)[C@@H](O)[C@H](O)[C@H]3O)O2)c(=O)[nH]c1=O [GAZT, 3′-Azido-3′-deoxythymidine β-D-glucuronide] | inhibited | inhibited | inhibited | inhibited |  | 
2 | Cc1cn([C@H]2C[C@H](N=[N+]=[N-])[C@@H](CO)O2)c(=O)[nH]c1=O [AZT, 1-[(2R,4S,5S)-4-Azido-5-(hydroxymethyl)oxolan-2-yl]-5-methylpyrimidine-2,4-dione, reference compound] | inhibited | inhibited | inhibited |  | reduced subretinal fibrosis volume | 
3 | Cc1cn([C@H]2C[C@H](N)[C@@H](CO)O2)c(=O)[nH]c1=O [AMT, 3′-Amino-3′-deoxythymidine] | inhibited | inhibited | inhibited | inhibited |  | 
4 | CNCCC(Oc1ccc(C(F)(F)F)cc1)c1ccccc1 (racemic) [racemic fluoxetine, fluoxetine] |  |  |  |  |  | up to 50%
5 | Nc1ccn([C@@H]2C[S@@+]([O-])[C@H](CO)O2)c(=O)n1 [LSO, Lamivudine (R)-sulfoxide] |  | inhibited |  | inhibited |  | 
6 | CCOCC1OC(n2ccc(N(CC)CC)nc2=O)CS1 (stereo not drawn) [Kamuvudine K-9] |  |  | inhibited |  |  | 
7 | CCOC[C@H]1O[C@@H](n2cc(C)c(=O)n(CC)c2=O)C[C@@H]1N=[N+]=[N-] [Kamuvudine K-8, 1-[(2R,4S,5S)-4-azide-5-(ethoxymethyl)oxolan-2-yl)-3-ethyl-5-methyl-1,2,3,4-etrahydropyrimidine-2,4-dione] |  |  | inhibited |  | reduced the volume of subretinal fibrosis | 

Source: patent US20230172962A1, “NRTIS, NRTI METABOLITES, AND NRTI ANALOGS FOR MACULAR DEGENERATION AND VIRAL INFECTIONS” (priority 2020, published 2023)
